Reference: article PMC10707934, “Design and Synthesis of Novel α-Methylchalcone Derivatives, Anti-Cervical Cancer Activity, and Reversal of Drug Resistance in HeLa/DDP Cells” (Molecules, 2023)

Experiments:
Type in all cases: cell-based, human
[1] = system: α-/β-tubulins in HeLa/DDP cells; assay: Western blot of polymerized and dissociated α-/β-tubulins, HeLa/DDP; settings: 24 h, versus control
Protocol: (§1) HeLa cells were cultured in 60 mm Petri dishes at a density of 1.0 × 10^6 cells per dish and treated with 0.1% DMSO (vehicle), positive control chalcone (20 μM), and different concentrations of compound 3k (2.5, 5, and 10 μM), respectively. Following a 24 and 48 h incubation period, the cells were harvested via centrifugation and subsequently washed twice with PBS that had been chilled to 0 °C. Next, the cells were homogenized using RIPA lysis buffer (Solarbio, Beijing, China) and supplemented with 1% PMSF (MP Biomedicals, 0754-25G, CAS:329-98-6, Santa Ana, CA, USA) and 1% mixed phosphatase inhibitor (Solarbio, Beijing, China). The resulting lysates were then incubated on ice for 30 min, intermittently vortexed every 5 min, and subsequently centrifuged at 12,000 rpm for 20 min to collect the supernatants.
(§2) Subsequently, the protein concentrations were determined utilizing a BCA Protein Assay Kit (Solarbio, China). An equivalent quantity of the proteins (12 μg) was fractionated via 8–12% sodium dodecyl sulfate–polyacrylamide gel electrophoresis (SDS-PAGE) and transferred onto nitrocellulose membranes (Amersham Biosciences, Amersham, UK). Following this, the membranes were obstructed with 5% nonfat dried milk in TBS containing 1% Tween-20 for a duration of 2 h at ambient temperature and were subjected to overnight incubation with specific primary antibodies (CST, Boston, MA, USA) at 4 °C. Following three washes in TBST, the membranes were subjected to incubation with the suitable HRP-conjugated secondary antibodies at ambient temperature for a duration of 2 h. The blots were subsequently visualized using enhanced chemiluminescence (Biosharp, Shanghai, China) and detected utilizing a PE 0723 imager (ProteinSimple, Silicon Valley, CA, USA). Each experiment was conducted in triplicate at minimum and analyzed employing Image J software (V1.8.0.112). β-actin(ab198991) rabbit mAb, goat anti-rabbit IgG (H + L) HRP—#S0001 (Affinity). Bax (ab289364), Bcl-2 (ab218123), MDR1/ABCB1 (E1Y7B) rabbit mAb #13342 (CST).
(§3) Polymerized and free microtubule proteins were extracted using the methods described in references, respectively. Following drug intervention, the cells were subjected to two washes with preheated microtubule protein buffer MTSB at 37 °C. Subsequently, 70 μL of MTSB was added, and the cells were lysed for 10 min at 37 °C in a constant temperature chamber shielded from light. The cells were then scraped with a spatula and centrifuged at 14,000 r/min for 10 min at room temperature. The resulting supernatant, which represented the free state microtubule protein suspension, was subsequently removed. The remaining precipitate was treated with RIPA lysis solution, followed by lysis on ice for a duration of 30 min. Subsequently, centrifugation was performed at a temperature of 4 °C and a speed of 12,000 revolutions per minute for a duration of 20 min. The resulting supernatant was collected as a suspension of polymerized microtubule protein. The Western blotting procedure was the same as in Section 3.3.4. α-Tubulin (DM1A) Mouse mAb#3873 (CST), β-Tubulin (D2N5G) Rabbit mAb #15115 (CST), CoraLite488-conjugated Goat Anti-Mouse lgG(H+L) (Proteintech); CoraLite488-conjugated Goat Anti-Rabbit lgG(H+L) (Proteintech); β-actin(ab198991) rabbit mAb, Goat Anti-Mouse IgG H&L (HRP) (ab6789); Goat anti-Rabbit IgG (H+L) HRP—#S0001 (Affinity).

HeLa/DDP cells = assay: MTT anti-cisplatin-resistant cervical cancer activity, HeLa/DDP; settings: 48 h
Protocol: (§4) All cell types, at a volume of 200 µL per well, were inoculated in 96-well plates at a density of 2.5 × 10^4 cells / mL and cultured for 24 h in an incubator with 5% CO2 at 37 °C. The old culture medium was replaced with 200 µL of fresh medium per well containing positive compounds, at concentrations of 1, 6.25, 12.5, 25, 50, and 100 μM. After 48 h of culture, 20 µL per well of 5 mg·mL^−1 MTT solution was added. After 4 h of culture, the old solution was discarded, and 150 µL per well of DMSO solution was added. Using an enzyme labeler (Thermo Fisher Scientific, Multiskan GO, Waltham, MA, USA), the plates were shaken for 10 min, OD values were determined at 490 nm, and the inhibition rate was calculated. Non-linear regression fitting of the cell growth rate was carried out using SPSS 23.0, and the IC50 of the compound was calculated. The inhibition rate was calculated using the formula: [(ODempty − ODtest)/(ODempty − ODnegative group)] × 100%, (ODempty blank group absorbance, ODtest absorbance of administration group, ODnegative group without cell culture medium). Each group contained six compound holes, and the experimental results averaged three trials. Complete medium containing only cells was used as the blank control; a complete medium without cells as was used as the negative control; and cisplatin, paclitaxel, and adriamycin were used as the positive controls. The concentration gradient was the same as that used for compounds 3a–3p.
To mitigate the detrimental consequences arising from the fixation of resistance reversal agents, concentrations that yielded a tumor cell proliferation rate reduction of less than 10% were selected. Consequently, the inhibitory efficacy of compound 3k against HeLa/DDP cells was assessed in conjunction with cisplatin at concentrations of 0.25, 0.5, and 1 μM. The experimental procedure employed was akin to that elucidated in Section 3.3.2. The impact of verapamil (6 μM) and 3k (0.25, 0.5, and 1 μM) on P-gp expression was ascertained via Western blot experiments, employing the same methodology delineated in Section 3.3.4.

[2] = system: α-tubulin, β-tubulin in HeLa cells; assay: Immunofluorescence assay of microtubules, HeLa; settings: 24 h, 3k 1, 2, and 4 μM, colchicine and paclitaxel 2.0 μM
Protocol: (§5) The cells were then fixed by adding 400 μL of 4% paraformaldehyde to each well and incubating for 30 min. 0.1% Triton was added at a volume of 400 μL per well and allowed to incubate for 10 min. Following this, goat serum (10%) was added at 400 μL per well and incubated for 40 min. Primary antibodies (α-tubulin, β-tubulin) were then incubated overnight at a temperature of 4 °C. Subsequently, secondary antibodies (α-mouse, β-rabbit) were incubated for 1.5 h. DAPI staining was performed at 400 μL per well for 5 min, followed by a wash with PBS. Cell climbing tablets were removed and inverted onto slides with sealer. Photographs were captured using a fluorescent inverted microscope.

[3] = system: α-tubulin, β-tubulin in HeLa/DDP cells; assay: Immunofluorescence assay of microtubules, HeLa/DDP; settings: 24 h, 3k 1, 2, and 4 μM, paclitaxel 2.0 μM
Protocol: as §5

HeLa cells = assay: MTT anti-proliferation assay, HeLa; settings: Homo sapiens, 48 h, mean ± SD
Protocol: as §4, with “3a–3p. […]” for “3a–3p.”

[4] = system: α-/β-tubulins in HeLa cells; assay: Western blot of polymerized and dissociated α-/β-tubulins, HeLa; settings: 24 h, versus control
Protocol: as §1, §2, §3

CC(=O)O[C@H]1C(=O)[C@@]2(C)[C@H]([C@H](OC(=O)c3ccccc3)[C@]3(O)C[C@H](OC(=O)[C@H](O)[C@@H](NC(=O)c4ccccc4)c4ccccc4)C(C)=C1C3(C)C)[C@]1(OC(C)=O)CO[C@@H]1C[C@@H]2O [Paclitaxel, paclitaxel]
expression of dissociated state α and β microtubule proteins ([1]; 3k 4 μM, colchicine and paclitaxel 2.0 μM): minimal impact
expression of polymerized state α and β microtubule proteins ([1]; positive drugs 2.0 μM): did not yield a significant impact
resistance index (RI) (HeLa/DDP cells; HeLa/DDP versus parental HeLa): 5.66
IC50 (HeLa/DDP cells; Homo sapiens, HeLa/DDP, MTT, mean ± SD): 130 ± 5.84 µM
microtubule immunofluorescence (α green, β red) [2]: fluorescence intensity of microtubules surrounding the cells decreased or vanished
microtubule immunofluorescence (α green, β red) [3]: no significant alteration in the fluorescence intensity of the microtubules surrounding the cells
IC50 (HeLa cells): 23 ± 1.33 µM
expression of dissociated state α and β microtubule proteins ([4]; 3k 4 μM, colchicine 2 μM, paclitaxel 2.0 μM): significantly decreased
expression of α and β microtubule proteins in the polymerized state ([4]; 3k 2 and 4 μM, colchicine and paclitaxel 2.0 μM): significantly enhanced
